Measured values published in PubChem BioAssay (NCI).
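Each compound was tested at five concentrations against cells in 96-well plates for 48 hours. GI50 is the concentration that inhibits growth by half. TGI: total growth inhibition.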 Where a SMILES comes first, the peptide text is derived from it. Bridges are numbered along the chain shown (N, C = ends). Roman numbers before positions name the chains, in order. [ ]: non-standard residue; d: D form. The star is where a group is joined. Quinoxaline2carbonyl = O=C(c1cnc2ccccc2n1)*; NMeV = CN[CH](C(=O)O)C(C)C; NMeC = CN[CH](CS)C(=O)O

Assays:
Experiment in all cases: NCI tumour cell line growth inhibition, 48 h
[1] = test system: MALME-3M melanoma
[2] = test system: OVCAR-5 ovarian
[3] = test system: HCT-116 colon
[4] = test system: UACC-62 melanoma
[5] = test system: SF-539 CNS
[6] = test system: RXF 393 renal
[7] = test system: IGROV1 ovarian
[8] = test system: SNB-75 CNS
[9] = test system: SK-OV-3 ovarian
[10] = test system: LOX IMVI melanoma

Compound	TGI [1]	TGI [2]	TGI [3]	TGI [4]	TGI [5]	TGI [6]	TGI [7]	TGI [8]	TGI [9]	GI50 [10]	TGI [10]	GI50 [2]	GI50 [3]	GI50 [4]	GI50 [5]	GI50 [6]	GI50 [7]	GI50 [8]	GI50 [9]	GI50 [1]
O=C(NC1CCCC1=O)c1ccccc1 (centres undefined)	> 100 µM	> 100 µM	> 100 µM	> 100 µM	> 100 µM	> 100 µM	> 100 µM	> 100 µM	> 100 µM											
CN1CCN(CC(O)COc2c(Br)c(Br)c(Br)c3c2OC(C)(C)C3)CC1 (centres undefined)		43.7 µM	> 100 µM	3.29 µM	13.5 µM	6.53 µM	25.1 µM	27 µM	38.4 µM	1.92 µM	3.36 µM	17.7 µM	5.16 µM	1.83 µM	3.21 µM	3.3 µM	5.36 µM	7.79 µM	18.4 µM	
CC1(C)CCC[C@]2(C)[C@@H](C=O)C(C=O)=CC[C@@H]12	32 µM	33.2 µM	83.4 µM	34.7 µM	53.3 µM	34.6 µM	44.4 µM		> 100 µM		42.2 µM									
C=C1CCC2[C@@H](CCC3[C@]2(C)CCC[C@]3(C)C(=O)OC)[C@@H]1CC=O (some centres undefined)	87.7 µM	> 100 µM	30.7 µM	64.5 µM	37.6 µM		> 100 µM	> 100 µM	> 100 µM			50.8 µM						37.1 µM	> 100 µM	
C[C@@H]1O[C@@H](OC[C@H]2O[C@@H](OCCc3ccc(O)c(O)c3)[C@H](O)[C@@H](O)[C@@H]2OC(=O)/C=C/c2ccc(O)c(O)c2)[C@H](O)[C@H](O)[C@H]1O		> 100 µM	> 100 µM	> 100 µM	> 100 µM	> 100 µM	> 100 µM	> 100 µM	> 100 µM	> 100 µM	> 100 µM	> 100 µM	50.5 µM	> 100 µM	> 100 µM	> 100 µM	> 100 µM	> 100 µM	> 100 µM	
COC12c3ccccc3-c3ccccc3C1[C@H]1C(=O)OC(=O)[C@H]12 (some centres undefined)	> 10 µM	> 10 µM			> 10 µM	> 10 µM	> 10 µM	> 10 µM	> 10 µM		> 10 µM									
O=C([CH-]C(=O)c1ccccc1)c1ccccc1.O=C([CH-]C(=O)c1ccccc1)c1ccccc1.[OH-].[OH-].[Ti+4]	> 100 µM	> 100 µM	> 100 µM	> 100 µM	> 100 µM	25.9 µM	> 100 µM	> 100 µM	> 100 µM			> 100 µM	84.3 µM	66.5 µM	29.7 µM	6.85 µM	> 100 µM	49.1 µM	75.6 µM	> 100 µM
c1ccc(P(=Nc2ccccc2N=P(c2ccccc2)(c2ccccc2)c2ccccc2)(c2ccccc2)c2ccccc2)cc1		7.53 µM	9.64 µM	11.7 µM	10.4 µM	9 µM	22.8 µM	2.09 µM	3.52 µM		13.9 µM									
C[CH2][Pb]([CH2]C)([CH2]C)[O]C(=O)c1ccc2ccccc2n1	> 10 µM	> 10 µM	> 10 µM	> 10 µM	> 10 µM	> 10 µM	> 10 µM		> 10 µM	> 10 µM	> 10 µM	> 10 µM	> 10 µM	> 10 µM	> 10 µM	> 10 µM	> 10 µM		> 10 µM	> 10 µM
CC1(C)OC2C(=O)C=C(COCc3ccccc3)C2O1 (centres undefined)	45 µM	84.6 µM	54.3 µM	28.6 µM	60.3 µM	45.8 µM	53.5 µM		22 µM		53.5 µM									
COc1ccc(/C=N/NC(=O)Cn2c(-c3ccc(S(C)(=O)=O)cc3)nc3cc(Cl)ccc32)cc1	46.4 µM	> 50 µM	> 50 µM	> 50 µM	3.35 µM		> 50 µM	> 50 µM	> 50 µM	1.4 µM	> 50 µM	3.54 µM	0.445 µM	0.709 µM	0.855 µM		3.63 µM	1.05 µM	1.72 µM	2.3 µM
c1ccc2c3c([nH]c2c1)C1CCCN1CC3 (centres undefined)	> 10 µM	> 10 µM			> 10 µM	> 10 µM	> 10 µM	> 10 µM	> 10 µM		> 10 µM									
COc1ccc2c(c1)OC1=C(C(=O)OC1)C2c1cc(OC)c2c(c1)OCO2 (centres undefined)	> 100 µM	> 100 µM	7.16 µM	> 100 µM	> 100 µM		> 100 µM	> 100 µM		0.0683 µM	> 100 µM	0.153 µM	0.0366 µM	0.0478 µM	0.0333 µM		0.0716 µM	0.0297 µM	0.0336 µM	> 100 µM
COc1cc2nc(NCCCCCNC(=O)c3ccco3)nc(N)c2cc1OC	33.3 µM	> 100 µM		52.6 µM	36.2 µM	83.5 µM	> 100 µM	54.2 µM	> 100 µM											
CC1(C)OCC(C(O)C2OC(C)(C)OC2/C=N\O)O1 (centres undefined)	> 100 µM	> 100 µM	> 100 µM		> 100 µM	> 100 µM	> 100 µM	> 100 µM	> 100 µM		> 100 µM									
CCO/C=C1\N=C(c2ccccc2Br)OC1=O	> 100 µM	> 100 µM		> 100 µM	> 100 µM	> 100 µM		> 100 µM	> 100 µM		> 100 µM									
N#Cc1ccc(N=Cc2c([O-])ccc3ccccc23)cc1.[C-]#[O+].[C-]#[O+].[Ir]	15.1 µM	36.5 µM	26 µM	24.6 µM	29.2 µM		27.9 µM	24.9 µM	39.1 µM	9.88 µM	22.4 µM	21.7 µM	13.2 µM	12.2 µM	15.2 µM		14.1 µM	11 µM	21.1 µM	4.42 µM
CCOC1=C2N=C(Cc3ccccc3F)N=C2C(=O)c2ccccc21	> 100 µM		> 100 µM	> 100 µM	> 100 µM	> 100 µM		> 100 µM												

Compound	TGI [1]	TGI [2]	TGI [3]	TGI [4]	TGI [5]	TGI [6]	TGI [7]	TGI [8]	TGI [9]	GI50 [10]	TGI [10]	GI50 [2]	GI50 [3]	GI50 [4]	GI50 [5]	GI50 [6]	GI50 [7]	GI50 [8]	GI50 [9]	GI50 [1]
O=C(Cc1ccccc1)NN1C(=O)C(Cl)C1c1ccccc1O (centres undefined)	86.1 µM	> 100 µM	> 100 µM	> 100 µM		> 100 µM	> 100 µM	> 100 µM	> 100 µM		> 100 µM									
COc1cc(-c2cc(-c3cc([N+](=O)[O-])c(/C=N/NC(=O)c4ccncc4)o3)ccc2OC)ccc1C	> 100 µM	> 100 µM		> 100 µM	> 100 µM	> 100 µM	> 100 µM	> 100 µM	> 100 µM		> 100 µM									
O=C(Oc1cccnc1)c1ccsc1Nc1ccnc(C(F)(F)F)c1	> 100 µM	> 100 µM	> 100 µM	> 100 µM		34.8 µM	> 100 µM	> 100 µM	29.5 µM	3.19 µM	> 100 µM	4.67 µM	3.95 µM	44.8 µM		6.26 µM	5.24 µM	25.2 µM	4 µM	45.6 µM
Cc1ccc2nc(NC(=O)/C(Cc3nc4ccc(Cl)cc4[nH]c3=O)=N\NC(C)(C)C)sc2c1		> 100 µM	> 100 µM	> 100 µM	> 100 µM	> 100 µM		83.1 µM	> 100 µM		> 100 µM									
COC(=O)CC1NC(=O)C1C1(C)OCCO1 (centres undefined)	> 100 µM		> 100 µM	> 100 µM	> 100 µM	> 100 µM	> 100 µM	97.7 µM			> 100 µM									
COC1O[C@@H]2C[C@H]3C(C)(C)CCC[C@]3(C)C3=CCCC1[C@@]32C (some centres undefined)	> 100 µM	> 100 µM	> 100 µM	> 100 µM	> 100 µM	> 100 µM	> 100 µM	> 100 µM		> 100 µM	> 100 µM	> 100 µM	> 100 µM	> 100 µM	> 100 µM	> 100 µM	> 100 µM	> 100 µM		> 100 µM
Cc1cc(N(CCC#N)CCC#N)ccc1/C=C1/N=C(c2ccccc2)N(N)C1=O	> 100 µM	> 100 µM	> 100 µM	> 100 µM	> 100 µM		> 100 µM	64.9 µM	> 100 µM		> 100 µM									
N#Cc1c(N)[nH]c2ccc(Sc3ccccc3)cc12		18 µM	8.34 µM	2.5 µM	0.694 µM	5.48 µM	8.36 µM	23 µM	20.3 µM		7.56 µM									
COc1ccc2c(c1OC)C(=O)OC2C1c2c(c([N+](=O)[O-])c3c(c2OC)OCO3)CCN1C (centres undefined)	> 100 µM	> 100 µM	> 100 µM	> 100 µM	> 100 µM	> 100 µM		> 100 µM	> 100 µM	> 100 µM	> 100 µM	> 100 µM	> 100 µM	> 100 µM	> 100 µM	> 100 µM		> 100 µM	> 100 µM	> 100 µM
CC1(C)C2CCC13CS(=O)(=O)N1O[C@]13C(=O)O2 (some centres undefined)	> 100 µM	> 100 µM	> 100 µM		> 100 µM		> 100 µM	> 100 µM			> 100 µM									
CC1NC(=O)C(NC(=O)c2cnc3ccccc3n2)COC(=O)C(C(C)C)N(C)C(=O)C2CSSCC(C(=O)N(C)C(C(C)C)C(=O)OCC(NC(=O)c3cnc4ccccc4n3)C(=O)NC(C)C(=O)N2C)N(C)C1=O (centres undefined) (I: Quinoxaline2carbonyl-SA[NMeC][NMeV] / II: Quinoxaline2carbonyl-SA[NMeC][NMeV]; ester I:1-II:C, I:C-II:1; disulfide I:3-II:3; configuration not given here)	< 0.01 µM	> 4.64 µM	14 µM	< 0.01 µM		< 0.01 µM		< 0.01 µM	6.87 µM		10.2 µM									
COc1ccc(C2[C@@H](Cl)C(=O)N2c2cc(OC)c(OC)c(OC)c2)cc1Cl (some centres undefined)	72.4 µM	> 100 µM	15.2 µM	29 µM		65.5 µM	41.5 µM	71.2 µM	> 100 µM	0.163 µM	20.8 µM	0.369 µM	0.0721 µM	0.0463 µM		0.0615 µM	0.343 µM	0.0734 µM	0.29 µM	20.7 µM
N/N=C1\CC(=O)NC(=O)N1	> 100 µM	> 100 µM	> 100 µM	> 100 µM		> 100 µM	> 100 µM	> 100 µM	> 100 µM		> 100 µM									
Cc1cc2c(c(C(=O)O)c1C)-c1cccc(F)c1C2=O	> 100 µM	> 100 µM		> 100 µM		> 100 µM	> 100 µM	> 100 µM	> 100 µM		> 100 µM									
CN1CCN(Cc2ccc(NC(=O)c3[nH]ncc3Nc3ncnc4sc5c(c34)CCCC5)cc2)CC1	2.82 µM	1.73 µM		1.93 µM	1.71 µM	0.949 µM	1.3 µM	1.44 µM	3.01 µM	0.289 µM	1.71 µM	0.383 µM		0.55 µM	0.457 µM	0.229 µM	0.258 µM	0.104 µM	0.198 µM	1.35 µM
CNS(=O)(=O)NNS(=O)(=O)c1ccc(Cl)cc1	> 100 µM	> 100 µM	> 100 µM	> 100 µM	> 100 µM	> 100 µM	> 100 µM		> 100 µM											
CC(=O)Oc1ccccc1C(=O)/C=C/c1cccc([N+](=O)[O-])c1	30.5 µM	17.1 µM	3.07 µM	12.2 µM	4.93 µM	3.48 µM		14.4 µM	29.2 µM	1.56 µM	3.33 µM	4.75 µM	1.66 µM	3.29 µM	2.08 µM	1.88 µM		2.94 µM	12.9 µM	13.6 µM
